Source: publication PMC7377239, “Cardiovascular Effects of Polychlorinated Biphenyls and Their Major Metabolites” (Environmental Health Perspectives, 2020)
Read-outs that look alike come from different tables or passages of the source.

Test system: iCell cardiomyocytes (human iPSC-derived cardiomyocytes)
Test: Intracellular Ca2+ flux / beating parameters in iCell cardiomyocytes (FLIPR tetra), 90 min or 24 h
Format: cell-based
Conditions: for activity at 0.01 µM / activity at 0.1 µM / activity at 1 µM / activity at 10 µM / activity at 100 µM: Homo sapiens, Cardiomyocyte, 0.00 µM = 100.00; for activity at 0.1 µM: 0.10 µM
In short: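 PODs were defined as the concentration crossing one SD of the vehicle-control means (0.5% DMSO) on four-parameter logistic fits of Ca2+ trace metrics (peak height, frequency, peak-spacing CV, decay/rise ratio). Traces came from 100 s, 8 Hz FLIPR reads at 37 °C on calcium-dye-loaded iCell cardiomyocytes. Before reading, cells were treated for 90 min or 24 h from 5× chemical plates spanning 0.05–500 µM, in triplicate.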

[1] = 1.5 h, read-out: cm.amp.avg.90min
[2] = 1.5 h, read-out: cm.amp.cv.90min
[3] = 1.5 h, read-out: cm.decay.rise.90min
[4] = 1.5 h, read-out: cm.spacing.cv.90min
[5] = 24 h, read-out: cm.amp.avg.24hrs
[6] = 24 h, read-out: cm.amp.cv.24hrs
[7] = 24 h, read-out: cm.decay.rise.24hrs
[8] = 24 h, read-out: cm.spacing.cv.24hrs

Molecule `Oc1cc(Cl)cc(-c2cccc(Cl)c2)c1` [5-OH PCB 11] has an activity at 0.01 µM [1] of 101%, an activity at 0.01 µM [2] of 105% and an activity at 0.01 µM (1.5 h, read-out: cm.bpm.90min) of 97.8%. It also gave an activity at 0.01 µM [3] of 102%, an activity at 0.01 µM [4] of 101% and an activity at 0.1 µM [1] of 102%. For the same molecule, the activity at 0.1 µM [2] was 103%, the activity at 0.1 µM (1.5 h, read-out: cm.bpm.90min) was 100% and the activity at 0.1 µM [3] was 98.1%. It also gave an activity at 0.1 µM [4] of 107%, an activity at 1 µM [1] of 104% and an activity at 1 µM [2] of 101%. The activity at 1 µM (1.5 h, read-out: cm.bpm.90min) was 102%, the activity at 1 µM [3] was 98.3% and the activity at 1 µM [4] was 99.1%. It also gave an activity at 10 µM [1] of 94.2%, an activity at 10 µM [2] of 105% and an activity at 10 µM (1.5 h, read-out: cm.bpm.90min) of 137%. It also gave an activity at 10 µM [3] of 92%, an activity at 10 µM [4] of 106% and an activity at 100 µM [1] of 0%. It also gave an activity at 100 µM [2] of 0%, an activity at 100 µM (1.5 h, read-out: cm.bpm.90min) of 0% and an activity at 100 µM [3] of 0%. The activity at 100 µM [4] was 0%, the activity at 0.01 µM [5] was 128% and the activity at 0.01 µM [6] was 95.9%. For the same molecule, the activity at 0.01 µM (24 h, read-out: cm.bpm.24hrs) was 104%, the activity at 0.01 µM [7] was 94.3% and the activity at 0.01 µM [8] was 112%. It also gave an activity at 0.1 µM [5] of 123%, an activity at 0.1 µM [6] of 81.7% and an activity at 0.1 µM (24 h, read-out: cm.bpm.24hrs) of 97.4%. For the same molecule, the activity at 0.1 µM [7] was 98.8%, the activity at 0.1 µM [8] was 113% and the activity at 1 µM [5] was 151%. The activity at 1 µM [6] was 71%, the activity at 1 µM (24 h, read-out: cm.bpm.24hrs) was 91.7% and the activity at 1 µM [7] was 100%. The activity at 1 µM [8] was 89.5%, the activity at 10 µM [5] was 126% and the activity at 10 µM [6] was 83.9%. It also gave an activity at 10 µM (24 h, read-out: cm.bpm.24hrs) of 114%, an activity at 10 µM [7] of 104% and an activity at 10 µM [8] of 101%. The activity at 100 µM [5] was 0%, the activity at 100 µM [6] was 0% and the activity at 100 µM (24 h, read-out: cm.bpm.24hrs) was 0%. It also gave an activity at 100 µM [7] of 0% and an activity at 100 µM [8] of 0%.

In the case of `Oc1cc(Cl)cc(-c2cccc(Cl)c2)c1` [5-OH-PCB 11], the “effect on Ca2+ flux” value (iPSC-CM, 100 μM, because of loss of cell viability) was “complete block of Ca^2+ flux”.
